Experimental data published in the CombiSolv-Exp solvation set (Vermeire and Green 2021).
Blank lines part the entries; values can stand above or below the compound they belong to.

Assay: solvent given as SMILES
[1] = in CCCCCCCCC=CCCCCCCCC(=O)OCC(COC(=O)CCCCCCCC=CCCCCCCCC)OC(=O)CCCCCCCC=CCCCCCCCC

solvation free energy, 298 K (in O): -10.7 kJ/mol
Structure (SMILES): CCCCCOC(=O)CCC

solvation free energy, 298 K (in O): -23.9 kJ/mol
Structure (SMILES): CCOC(=O)CCC(=O)OCC

solvation free energy, 298 K (in CCCCCCCC): -19.2 kJ/mol | solvation free energy, 298 K (in CCCCCCCCCC): -19 kJ/mol
Structure (SMILES): CC(C)C(C)(C)O

solvation free energy, 298 K (in O): -32.6 kJ/mol
Structure (SMILES): COc1cc(C=O)c(Cl)c(OC)c1O

solvation free energy, 298 K (in CCOC(C)=O): -56.8 kJ/mol | solvation free energy, 298 K (in O): -54.3 kJ/mol
Structure (SMILES): O=C(O)Cc1ccc(O)cc1

solvation free energy, 298 K (in O): -26.8 kJ/mol
Structure (SMILES): CCCOCCO

solvation free energy, 298 K (in O): -40.8 kJ/mol
Structure (SMILES): CCC(=O)c1c(C)[nH]n(-c2ccccc2)c1=O

solvation free energy, 298 K (in C1COCCO1): -51.7 kJ/mol
Structure (SMILES): Nc1ccc(O)cc1

solvation free energy, 298 K (in O): -57.1 kJ/mol
Structure (SMILES): NC(N)=O

solvation free energy, 298 K (in C1CCOC1): -18.4 kJ/mol | solvation free energy, 298 K (in C1CCOCC1): -17.9 kJ/mol | solvation free energy, 298 K (in C=CCCCCCCCCCCCCCC): -14.7 kJ/mol | solvation free energy, 298 K (in CCCCCC): -16.2 kJ/mol | solvation free energy, 298 K (in COC(C)(C)C): -17.3 kJ/mol | solvation free energy, 298 K (in O): 0.126 kJ/mol
Structure (SMILES): CC(C)CCl

solvation free energy, 298 K (in O): -12.9 kJ/mol
Structure (SMILES): CC(C)=CCCC(C)CCOC=O (stereo unspecified)

solvation free energy, 298 K (in CN1CCCC1=O): -53.6 kJ/mol | solvation free energy, 298 K (in O): -37.4 kJ/mol
Structure (SMILES): O=Cc1ccc(C(=O)O)cc1

solvation free energy, 298 K (in CCCCCCCC): -22.2 kJ/mol | solvation free energy, 298 K (in CCCCCCCCCC): -22 kJ/mol
Structure (SMILES): CCCC(C)C(C)O (stereo unspecified)

solvation free energy, 298 K (in C=CCCCCCCC=C): -62 kJ/mol | solvation free energy, 298 K (in C=CCCCCCCCCCCCCCC): -61.4 kJ/mol | solvation free energy, 298 K (in O): -85.9 kJ/mol
Structure (SMILES): Nc1ncnc2c1ncn2C1CCC(CO)O1 (stereo unspecified)

solvation free energy, 298 K (in O): -16.3 kJ/mol
Structure (SMILES): CC(=O)C1CCCCC1

solvation free energy, 298 K (in CN(C)C=O): -51.6 kJ/mol | solvation free energy, 298 K (in O): -27.9 kJ/mol
Structure (SMILES): O=C(O)c1ccc(Br)cc1

solvation free energy, 298 K (in O): -26.2 kJ/mol
Structure (SMILES): CCc1cccc(O)c1

solvation free energy, 298 K (in CCCCCCCCCCCCCCCC): -20.8 kJ/mol | solvation free energy, 298 K (in CCCCCCCCO): -22.3 kJ/mol | solvation free energy, 298 K (in O): -9.58 kJ/mol | solvation free energy, 298 K (in [2H]O[2H]): -9.87 kJ/mol
Structure (SMILES): CC(=O)OCCC(C)C

solvation free energy, 298 K (in CCCCCCC): -29.1 kJ/mol | solvation free energy, 298 K (in O): -15.6 kJ/mol
Structure (SMILES): CCCCCCCCN

solvation free energy, 298 K (in O): -24.9 kJ/mol
Structure (SMILES): CNCc1ccc(C)cc1

solvation free energy, 298 K (in O): 1.92 kJ/mol
Structure (SMILES): CC1=CCC2(C)CCCC(C)(C)C23CC13 (stereo unspecified)

solvation free energy, 298 K (in O): -39.9 kJ/mol
Structure (SMILES): Nc1ccc(O)c2c1C(=O)c1ccccc1C2=O

Further lines, the compound ahead of its results:

Structure (SMILES): CCC#N
solvation free energy, 298 K (in C=CCCCCCCCCCCCCCC): -11.9 kJ/mol | solvation free energy, 298 K (in CC(=O)N(C)C): -20.9 kJ/mol | solvation free energy, 298 K (in CC(C)CC(C)(C)C): -11.8 kJ/mol | solvation free energy, 298 K (in CCCCCC): -12.7 kJ/mol | solvation free energy, 298 K (in CCCCCCC): -12 kJ/mol | solvation free energy, 298 K (in CCCCCCCC): -11.9 kJ/mol | solvation free energy, 298 K (in CCCCCCCCCCCCCCCC): -11 kJ/mol | solvation free energy, 298 K (in CCCCCCCCO): -15.3 kJ/mol | solvation free energy, 298 K (in CCCCO): -16.8 kJ/mol | solvation free energy, 298 K (in CCOC(C)=O): -19.6 kJ/mol | solvation free energy, 298 K (in CN(C)C=O): -21 kJ/mol | solvation free energy, 298 K (in CO): -20.6 kJ/mol | solvation free energy, 298 K (in ClC(Cl)(Cl)Cl): -15.8 kJ/mol | solvation free energy, 298 K (in ClCCCl): -20.8 kJ/mol | solvation free energy, 298 K (in Clc1ccccc1): -18.6 kJ/mol | solvation free energy, 298 K (in N#Cc1ccccc1): -20.2 kJ/mol | solvation free energy, 298 K (in O): -16.1 kJ/mol | solvation free energy, 298 K (in [2H]O[2H]): -15.9 kJ/mol

Structure (SMILES): O=Cc1ccco1
solvation free energy, 298 K (in CCCCCCCC): -17.9 kJ/mol | solvation free energy, 298 K (in CCCCCCCCCC): -18.9 kJ/mol | solvation free energy, 298 K (in CCOC(C)=O): -26.4 kJ/mol | solvation free energy, 298 K (in O): -22.1 kJ/mol

Structure (SMILES): O=C(O)c1ccccc1Cl
solvation free energy, 298 K (in CC(C)=O): -43.4 kJ/mol | solvation free energy, 298 K (in CN(C)C=O): -46.6 kJ/mol | solvation free energy, 298 K (in O): -31.5 kJ/mol

Structure (SMILES): Nc1ccc([N+](=O)[O-])cc1
solvation free energy, 298 K (in CC(C)CC(C)(C)C): -33.9 kJ/mol | solvation free energy, 298 K (in CC(C)CO): -48.7 kJ/mol | solvation free energy, 298 K (in CCC(C)O): -49.7 kJ/mol | solvation free energy, 298 K (in CCCCOC(C)=O): -53 kJ/mol | solvation free energy, 298 K (in CCCCOCCCC): -46.5 kJ/mol | solvation free energy, 298 K (in COC(C)=O): -55.1 kJ/mol

Structure (SMILES): Cc1cc2ccccc2cc1C
solvation free energy, 298 K [1]: -37.4 kJ/mol | solvation free energy, 298 K (in O): -11.4 kJ/mol

Structure (SMILES): Cc1c(Cl)c(Cl)c(Cl)c(Cl)c1Cl
solvation free energy, 298 K [1]: -41.3 kJ/mol | solvation free energy, 298 K (in O): -8.45 kJ/mol

Structure (SMILES): ClC(Cl)C(Cl)Cl
solvation free energy, 298 K (in CC(C)=O): -26.3 kJ/mol | solvation free energy, 298 K (in CCCCCCCCCCCCCCCC): -21.8 kJ/mol | solvation free energy, 298 K (in CCCCCCCCO): -24.4 kJ/mol | solvation free energy, 298 K (in ClC(Cl)(Cl)Cl): -24.8 kJ/mol | solvation free energy, 298 K (in ClCCCl): -26.7 kJ/mol | solvation free energy, 298 K (in O): -10.3 kJ/mol | solvation free energy, 298 K (in [2H]O[2H]): -10.8 kJ/mol

Structure (SMILES): CCCCCCCCCCCCCCO
solvation free energy, 298 K (in CC(C)O): -51.7 kJ/mol | solvation free energy, 298 K (in CCC(C)=O): -52.7 kJ/mol | solvation free energy, 298 K [1]: -41.4 kJ/mol | solvation free energy, 298 K (in CCCCCCCCCCO): -50.7 kJ/mol | solvation free energy, 298 K (in CCCCCCO): -51 kJ/mol | solvation free energy, 298 K (in O): -12.9 kJ/mol

Structure (SMILES): C=C1CCC2C(C)CCC3C(C12)C3(C)C (stereo unspecified)
solvation free energy, 298 K (in O): 1.76 kJ/mol

Structure (SMILES): COP(=S)(OC)Oc1ccc([N+](=O)[O-])cc1
solvation free energy, 298 K (in O): -30.1 kJ/mol

Structure (SMILES): C=Cc1ccccc1
solvation free energy, 298 K (in O): -5.31 kJ/mol

Structure (SMILES): Clc1ccc(-c2ccccc2Cl)cc1
solvation free energy, 298 K (in CCCCCCCCO): -41.9 kJ/mol | solvation free energy, 298 K (in O): -10.8 kJ/mol

Structure (SMILES): O=[N+]([O-])c1cccc(Cl)c1Cl
solvation free energy, 298 K (in C1CCCCC1): -35.1 kJ/mol | solvation free energy, 298 K (in CC(C)O): -35.8 kJ/mol | solvation free energy, 298 K (in CCCCCC): -33.3 kJ/mol | solvation free energy, 298 K (in CCCCCCC): -33.8 kJ/mol | solvation free energy, 298 K (in CCCCO): -36.4 kJ/mol | solvation free energy, 298 K (in CCCO): -36.2 kJ/mol | solvation free energy, 298 K (in CCOC(C)=O): -41.5 kJ/mol | solvation free energy, 298 K (in ClC(Cl)(Cl)Cl): -39.6 kJ/mol | solvation free energy, 298 K (in O): -17.7 kJ/mol

Structure (SMILES): Brc1cccc(Br)c1
solvation free energy, 298 K (in O): -8.33 kJ/mol

Structure (SMILES): Nc1ccccc1
solvation free energy, 298 K (in CC(C)=O): -32.8 kJ/mol | solvation free energy, 298 K (in CC(C)CC(C)(C)C): -21.8 kJ/mol | solvation free energy, 298 K (in CCCCCC): -22.7 kJ/mol | solvation free energy, 298 K (in CCCCCCC): -22.5 kJ/mol | solvation free energy, 298 K (in CCCCCCCC): -20.3 kJ/mol | solvation free energy, 298 K (in CCCCCCCCCCCCCCCC): -22.4 kJ/mol | solvation free energy, 298 K (in CCCCCl): -27.9 kJ/mol | solvation free energy, 298 K (in CCOC(C)=O): -31.3 kJ/mol | solvation free energy, 298 K (in O): -24.1 kJ/mol

Structure (SMILES): O=C(O)Cc1cccc(Cl)c1
solvation free energy, 298 K (in O): -35.1 kJ/mol
